From PMC9082781 (ACS infectious diseases, 2021)
≈ marks a conversion by molar mass, not a printed value. Non-standard residues stand in square brackets, D forms with d. Residues, ends and D or L forms follow the SMILES beside them. No end group written: not given here. *: point of attachment. Myristoyl = CCCCCCCCCCCCCC(=O)*; Lauroyl = CCCCCCCCCCCC(=O)*; Decanoyl = CCCCCCCCCC(=O)*; Octanoyl = CCCCCCCC(=O)*; Hexanoyl = CCCCCC(=O)*

How the values were obtained:
[1] = tested on: Klebsiella pneumonia ATCC 13883; format: cell-based, Klebsiella pneumoniae
P. aeruginosa PAO1 = format: cell-based, Pseudomonas aeruginosa

Molecule	MIC KP [1]	other results
CCCCCCCCCCCCCC(=O)N[C@@H](CCCCN)C(=O)N[C@@H](CCCNC(=N)N)C(=O)N[C@H](C(=O)N[C@@H](Cc1c[nH]c2ccccc12)C(N)=O)[C@@H](C)CC [Peptide C14-KR4] (Myristoyl-KRIW-NH2; C-terminus assumed)	12.5 µM (≈ 10.1 µg/mL)	–
CCCCCCCCCC(=O)N[C@@H](CCCCN)C(=O)N[C@@H](CCCNC(=N)N)C(=O)N[C@H](C(=O)N[C@@H](Cc1c[nH]c2ccccc12)C(N)=O)[C@@H](C)CC [Peptide C10-KR4] (Decanoyl-KRIW-NH2; C-terminus assumed)	>50 µM	–
CCCCCCCCCC(=O)N[C@@H](CCCCN)C(=O)N[C@@H](CCCNC(=N)N)C(=O)N[C@H](C(=O)N[C@@H](Cc1c[nH]c2ccccc12)C(=O)N[C@@H](CCC(N)=O)C(=O)N[C@@H](CCCNC(=N)N)C(N)=O)[C@@H](C)CC [Peptide C10-KR6] (Decanoyl-KRIWQR-NH2; C-terminus assumed)	>50 µM	–
CCCCCCCCCCCC(=O)N[C@@H](CCCCN)C(=O)N[C@@H](CCCNC(=N)N)C(=O)N[C@H](C(=O)N[C@@H](Cc1c[nH]c2ccccc12)C(=O)N[C@@H](CCC(N)=O)C(=O)N[C@@H](CCCNC(=N)N)C(N)=O)[C@@H](C)CC [Peptide C12-KR6] (Lauroyl-KRIWQR-NH2; C-terminus assumed)	>50 µM	–
CCCCCC(=O)N[C@@H](CCCCN)C(=O)N[C@@H](CCCNC(=N)N)C(=O)N[C@H](C(=O)N[C@@H](Cc1c[nH]c2ccccc12)C(=O)N[C@@H](CCC(N)=O)C(=O)N[C@@H](CCCNC(=N)N)C(N)=O)[C@@H](C)CC [Peptide C6-KR6] (Hexanoyl-KRIWQR-NH2; C-terminus assumed)	>50 µM	–
CCCCCCCCCCCC(=O)N[C@@H](CCCCN)C(=O)N[C@@H](CCCNC(=N)N)C(=O)N[C@H](C(=O)N[C@@H](Cc1c[nH]c2ccccc12)C(N)=O)[C@@H](C)CC [Peptide C12-KR4] (Lauroyl-KRIW-NH2; C-terminus assumed)	>50 µM	–
CCCCCCCCCCCCCC(=O)N[C@@H](CCCCN)C(=O)N[C@@H](CCCNC(=N)N)C(=O)N[C@H](C(=O)N[C@@H](Cc1c[nH]c2ccccc12)C(=O)N[C@@H](CCC(N)=O)C(=O)N[C@@H](CCCNC(=N)N)C(=O)N[C@H](C(=O)N[C@@H](CCCCN)C(=O)N[C@@H](CC(=O)O)C(=O)N[C@@H](Cc1ccccc1)C(N)=O)[C@@H](C)CC)[C@@H](C)CC [Peptide C14-KR10] (Myristoyl-KRIWQRIKDF-NH2)	6.2 µM (≈ 9.91 µg/mL)	–
CCCCCC(=O)N[C@@H](CCCCN)C(=O)N[C@@H](CCCNC(=N)N)C(=O)N[C@H](C(=O)N[C@@H](Cc1c[nH]c2ccccc12)C(N)=O)[C@@H](C)CC [Peptide C6-KR4] (Hexanoyl-KRIW-NH2; C-terminus assumed)	>50 µM	–
CCCCCCCCCCCC(=O)N[C@@H](CCCCN)C(=O)N[C@@H](CCCNC(=N)N)C(=O)N[C@H](C(=O)N[C@@H](Cc1c[nH]c2ccccc12)C(=O)N[C@@H](CCC(N)=O)C(=O)N[C@@H](CCCNC(=N)N)C(=O)N[C@H](C(=O)N[C@@H](CCCCN)C(N)=O)[C@@H](C)CC)[C@@H](C)CC [Peptide C12-KR8] (Lauroyl-KRIWQRIK-NH2)	>50 µM	–
CCCCCC(=O)N[C@@H](CCCCN)C(=O)N[C@@H](CCCNC(=N)N)C(=O)N[C@H](C(=O)N[C@@H](Cc1c[nH]c2ccccc12)C(=O)N[C@@H](CCC(N)=O)C(=O)N[C@@H](CCCNC(=N)N)C(=O)N[C@H](C(=O)N[C@@H](CCCCN)C(=O)N[C@@H](CC(=O)O)C(=O)N[C@@H](Cc1ccccc1)C(=O)N[C@@H](CC(C)C)C(=O)N[C@@H](CCCNC(=N)N)C(N)=O)[C@@H](C)CC)[C@@H](C)CC [Peptide C6-KR12] (Hexanoyl-KRIWQRIKDFLR-NH2)	6.2 µM (≈ 10.9 µg/mL)	–
CCCCCCCC(=O)N[C@H](CCCCN)C(=O)N[C@H](CCCNC(=N)N)C(=O)N[C@@H](C(=O)N[C@H](Cc1c[nH]c2ccccc12)C(=O)N[C@H](CCC(N)=O)C(=O)N[C@H](CCCNC(=N)N)C(=O)N[C@@H](C(=O)N[C@H](CCCCN)C(=O)N[C@H](CC(=O)O)C(=O)N[C@H](Cc1ccccc1)C(N)=O)[C@H](C)CC)[C@H](C)CC [Peptide C8-KR10d] (Octanoyl-[dK][dR][dI][dW][dQ][dR][dI][dK][dD][dF]-NH2; C-terminus assumed)	12.5 µM (≈ 18.9 µg/mL)	MIC SA (S. aureus USA300 LAC; USA300): 3.1 µM (≈ 4.7 µg/mL); Minimal inhibitory concentration (MIC) (S. aureus USA300 LAC; USA300, pH 7.4): 3.1 µM (≈ 4.7 µg/mL); MIC EC (E. coli ATCC25922): 6.2 µM (≈ 9.39 µg/mL); MIC PA (P. aeruginosa PAO1): 12.5 µM (≈ 18.9 µg/mL)
CCCCCCCCCCCCCC(=O)N[C@@H](CCCCN)C(=O)N[C@@H](CCCNC(=N)N)C(=O)N[C@H](C(=O)N[C@@H](Cc1c[nH]c2ccccc12)C(=O)N[C@@H](CCC(N)=O)C(=O)N[C@@H](CCCNC(=N)N)C(N)=O)[C@@H](C)CC [Peptide C14-KR6] (Myristoyl-KRIWQR-NH2; C-terminus assumed)	>50 µM	–
CCCCCCCCCC(=O)N[C@@H](CCCCN)C(=O)N[C@@H](CCCNC(=N)N)C(=O)N[C@H](C(=O)N[C@@H](Cc1c[nH]c2ccccc12)C(=O)N[C@@H](CCC(N)=O)C(=O)N[C@@H](CCCNC(=N)N)C(=O)N[C@H](C(=O)N[C@@H](CCCCN)C(=O)N[C@@H](CC(=O)O)C(=O)N[C@@H](Cc1ccccc1)C(N)=O)[C@@H](C)CC)[C@@H](C)CC [Peptide C10-KR10] (Decanoyl-KRIWQRIKDF-NH2)	6.2 µM (≈ 9.57 µg/mL)	MIC PA (P. aeruginosa PAO1): 6.2 µM (≈ 9.57 µg/mL)
CCCCCCCCCCCCCC(=O)N[C@@H](CCCCN)C(=O)N[C@@H](CCCNC(=N)N)C(=O)N[C@H](C(=O)N[C@@H](Cc1c[nH]c2ccccc12)C(=O)N[C@@H](CCC(N)=O)C(=O)N[C@@H](CCCNC(=N)N)C(=O)N[C@H](C(=O)N[C@@H](CCCCN)C(N)=O)[C@@H](C)CC)[C@@H](C)CC [Peptide C14-KR8] (Myristoyl-KRIWQRIK-NH2)	>50 µM	–
CCCCCC(=O)N[C@@H](CCCCN)C(=O)N[C@@H](CCCNC(=N)N)C(=O)N[C@H](C(=O)N[C@@H](Cc1c[nH]c2ccccc12)C(=O)N[C@@H](CCC(N)=O)C(=O)N[C@@H](CCCNC(=N)N)C(=O)N[C@H](C(=O)N[C@@H](CCCCN)C(N)=O)[C@@H](C)CC)[C@@H](C)CC [Peptide C6-KR8] (Hexanoyl-KRIWQRIK-NH2)	>50 µM	–
KRIVQRIKDFLR-NH2 [KR12, reference compound]	>50 µM	MIC EC (E. coli ATCC25922): >50 µM
CCCCCCCC(=O)N[C@@H](CCCCN)C(=O)N[C@@H](CCCNC(=N)N)C(=O)N[C@H](C(=O)N[C@@H](Cc1c[nH]c2ccccc12)C(=O)N[C@@H](CCC(N)=O)C(=O)N[C@@H](CCCNC(=N)N)C(N)=O)[C@@H](C)CC [Peptide C8-KR6] (Octanoyl-KRIWQR-NH2; C-terminus assumed)	>50 µM	–
CCCCCCCC(=O)N[C@@H](CCCCN)C(=O)N[C@@H](CCCNC(=N)N)C(=O)N[C@H](C(=O)N[C@@H](Cc1c[nH]c2ccccc12)C(=O)N[C@@H](CCC(N)=O)C(=O)N[C@@H](CCCNC(=N)N)C(=O)N[C@H](C(=O)N[C@@H](CCCCN)C(=O)N[C@@H](CC(=O)O)C(=O)N[C@@H](Cc1ccccc1)C(=O)N[C@@H](CC(C)C)C(=O)N[C@@H](CCCNC(=N)N)C(N)=O)[C@@H](C)CC)[C@@H](C)CC [Peptide C8-KR12] (Octanoyl-KRIWQRIKDFLR-NH2)	<6.2 µM	–
CCCCCCCCCCCC(=O)N[C@@H](CCCCN)C(=O)N[C@@H](CCCNC(=N)N)C(=O)N[C@H](C(=O)N[C@@H](Cc1c[nH]c2ccccc12)C(=O)N[C@@H](CCC(N)=O)C(=O)N[C@@H](CCCNC(=N)N)C(=O)N[C@H](C(=O)N[C@@H](CCCCN)C(=O)N[C@@H](CC(=O)O)C(=O)N[C@@H](Cc1ccccc1)C(N)=O)[C@@H](C)CC)[C@@H](C)CC [Peptide C12-KR10] (Lauroyl-KRIWQRIKDF-NH2)	3.1 µM (≈ 4.87 µg/mL)	MIC PA (P. aeruginosa PAO1): 3.1 µM (≈ 4.87 µg/mL)
CCCCCCCCCCCC(=O)N[C@@H](CCCCN)C(=O)N[C@@H](CCCNC(=N)N)C(=O)N[C@H](C(=O)N[C@@H](Cc1c[nH]c2ccccc12)C(=O)N[C@@H](CCC(N)=O)C(=O)N[C@@H](CCCNC(=N)N)C(=O)N[C@H](C(=O)N[C@@H](CCCCN)C(=O)N[C@@H](CC(=O)O)C(=O)N[C@@H](Cc1ccccc1)C(=O)N[C@@H](CC(C)C)C(=O)N[C@@H](CCCNC(=N)N)C(N)=O)[C@@H](C)CC)[C@@H](C)CC [Peptide C12-KR12] (Lauroyl-KRIWQRIKDFLR-NH2)	12.5 µM (≈ 23 µg/mL)	–
CCCCCC(=O)N[C@@H](CCCCN)C(=O)N[C@@H](CCCNC(=N)N)C(=O)N[C@H](C(=O)N[C@@H](Cc1c[nH]c2ccccc12)C(=O)N[C@@H](CCC(N)=O)C(=O)N[C@@H](CCCNC(=N)N)C(=O)N[C@H](C(=O)N[C@@H](CCCCN)C(=O)N[C@@H](CC(=O)O)C(=O)N[C@@H](Cc1ccccc1)C(N)=O)[C@@H](C)CC)[C@@H](C)CC [Peptide C6-KR10] (Hexanoyl-KRIWQRIKDF-NH2)	>50 µM	–
CCCCCCCC(=O)N[C@@H](CCCCN)C(=O)N[C@@H](CCCNC(=N)N)C(=O)N[C@H](C(=O)N[C@@H](Cc1c[nH]c2ccccc12)C(=O)N[C@@H](CCC(N)=O)C(=O)N[C@@H](CCCNC(=N)N)C(=O)N[C@H](C(=O)N[C@@H](CCCCN)C(N)=O)[C@@H](C)CC)[C@@H](C)CC [Peptide C8-KR8] (Octanoyl-KRIWQRIK-NH2)	>50 µM	–
CCCCCCCC(=O)N[C@@H](CCCCN)C(=O)N[C@@H](CCCNC(=N)N)C(=O)N[C@H](C(=O)N[C@@H](Cc1c[nH]c2ccccc12)C(N)=O)[C@@H](C)CC [Peptide C8-KR4] (Octanoyl-KRIW-NH2; C-terminus assumed)	>50 µM	–
CCCCCCCCCC(=O)N[C@@H](CCCCN)C(=O)N[C@@H](CCCNC(=N)N)C(=O)N[C@H](C(=O)N[C@@H](Cc1c[nH]c2ccccc12)C(=O)N[C@@H](CCC(N)=O)C(=O)N[C@@H](CCCNC(=N)N)C(=O)N[C@H](C(=O)N[C@@H](CCCCN)C(=O)N[C@@H](CC(=O)O)C(=O)N[C@@H](Cc1ccccc1)C(=O)N[C@@H](CC(C)C)C(=O)N[C@@H](CCCNC(=N)N)C(N)=O)[C@@H](C)CC)[C@@H](C)CC [Peptide C10-KR12] (Decanoyl-KRIWQRIKDFLR-NH2)	6.2 to 12.5 µM	–
